Experimental data from patent US20250268873A1, “COMBINATION OF DUAL ATM AND DNA-PK INHIBITORS AND IMMUNOTHERAPEUTIC AGENTS FOR USE IN CANCER THERAPY” (XRAD THERAPEUTICS, INC., priority 2021, published 2025).

System: MDA-MB-231 tumors
Experiment: In vivo tumor growth delay study, MDA-MB-231 subcutaneous human xenograft mouse model
Experimental: Female NCr nu/nu mice (Crl:NU(NCr)-Foxn1nu, Strain 490) were obtained from Charles River at 5-6 weeks of age.
FADU or MDA-MB-231 cells were harvested during log phase growth for in vivo implantation. The resuspended cells were washed three times in phosphate buffered saline (PBS) before preparing the working dilution in PBS. FADU cells were diluted to 1×10^7 cells/mL and MDA-MB-231 cells were diluted to 5×10^7 cells/mL. Each mouse was injected subcutaneously in the right flank with 100 μL of the cellular suspension. Tumor growth was monitored until the tumors reached a target volume of at least 100 mm^3, at which point mice were randomly stratified into four treatment groups.
Following implantation of the tumor cell lines, mice were monitored once weekly for tumor development. Upon detection, tumors were measured in two dimensions using digital calipers. Tumors were treated after reaching at least 100 mm^3 and were measured two to three times weekly following enrollment in one of the treatment groups. The study endpoint was defined as tumor quintupling from the volume at time of treatment.
The vehicle used in this study was 0.5% (Hydroxypropyl)methyl cellulose (HPMC) and 0.2% Tween80 dissolved in deionized water. The pH of the vehicle was adjusted to 7.0-8.0 and the vehicle was stored at 4° C. On each day of in vivo treatment an appropriate mass of test compound was added to the vehicle at room temperature. The mixture was vortexed as necessary to generate a final concentration of 1.6 mg/mL.
In vivo tumor growth delay study was performed as follows. Following implantation of the tumor cell lines, mice were monitored once weekly for tumor development. Upon development of a tumor measuring at least 100 mm^3, tumor-bearing mice were stratified to one of 4 groups, utilizing 5 mice per group. Tumor volumes were between 100 and 500 mm^3. Vehicle or compound 569 (10 mg/kg) were administered by oral gavage once daily for three consecutive days (qd×3), alone or in combination with focal radiation. The delivered volume of vehicle or compound 569 was adjusted based on body weight of the individual animals. […]
Prism (GraphPad) was used for graphical presentations. […] In order to adjust for the differing tumor sizes at the start of treatment, the relative tumor volume was calculated by dividing the tumor volume at each time point by the volume at baseline. […] When an animal exited the study due to tumor quintupling, the final tumor volume recorded for the animal was included with the data used to calculate the median volume at subsequent time points. […] Differences in quintupling-free survival between the four treatment groups were evaluated with a log-rank test. […]

CC(C)NCCOc1ncc(-c2cc3c4c(cnc3cc2F)N(C)C(=O)C42CCC2)cc1NS(C)(=O)=O [Compound 569, N-(5-(7′-Fluoro-3′-methyl-2′-oxo-2′,3′-dihydrospiro[cyclobutane-1,1′-pyrrolo[2,3-c]quinolin]-8′-yl)-2-(2-(isopropylamino)ethoxy)pyridin-3-yl)methanesulfonamide]
median time to endpoint (tumor quintupling) (Group 2: compound 569 10 mg/kg po qd×3 alone): 17 days
tumor growth curves and quintupling-free survival (Group 2: compound 569 10 mg/kg qd×3 alone vs vehicle (Group 1)): nearly identical to those for Group 1
median time to endpoint (tumor quintupling) (Group 4: compound 569 10 mg/kg 45 min prior to 3 Gy focal radiation, qd×3): 43 days
overall survival (quintupling-free) (Group 4: compound 569 + 3 Gy qd×3, P<0.01, logrank): significantly improved compared to Group 1, Group 2, and Group 3
